Assay results: PMC9785280, “Synthesis, Antiproliferative Evaluation and QSAR Analysis of Novel Halogen- and Amidino-Substituted Benzothiazoles and Benzimidazoles” (International Journal of Molecular Sciences, 2022)

Key:
[1] = tested on: SW620 (colorectal adenocarcinoma, metastatic) cells; assay: MTT antiproliferative assay, SW620; type: cell-based, human; details: Homo sapiens, SW-620; 72 h, MTT, mean ± SD of three independent experiments; read-out: IC50 (µM) SW620
Experimental: (§1) The growth inhibition activity was assessed according to the slightly modified procedure performed at the National Cancer Institute, Developmental Therapeutics Program.
(§2) Examined compounds were dissolved in DMSO (1 × 10^−2 M). The experiments were carried out on seven human tumor cell lines and two normal cell lines. The following cell lines were used: HeLa (human cervical adenocarcinoma; purchased from ATCC), CaCo-2 (human colorectal adenocarcinoma), HuT78 (T-cell lymphoma), THP-1 (acute monocytic leukemia), SW620 (colorectal adenocarcinoma, metastatic), MDA-MB-231 (human breast adenocarcinoma), HL60 (promyelocytic leukemia cell line), foreskin fibroblast cells (BJ) and MDCK1 (Madine–Darby canine kidney fibroblast like cells). MDCK1 cells were used between 24 and 26 passages.
(§3) Adherent cells were cultured in the Dulbecco’s modified Eagle medium—DMEM (Gibco, EU) supplemented with 10 % heat-inactivated fetal bovine serum (FBS, Gibco, EU), 2 mM glutamine, and 100 U/0.1 mg penicillin/streptomycin. Cells on suspension were cultured in RPMI 1640 (Gibco, EU) medium supplemented with 10 % FBS (Gibco, EU), 2 mM glutamine, 1 mM sodium pyruvate, 10 mM HEPES. Cells were grown in humidified atmosphere under the conditions of 37 °C/5% of CO2 gas in the CO2 incubator (IGO 150 CELLlife^TM, JOUAN, Thermo Fisher Scientific, Waltham, MA, USA). A erythrosin B (Sigma-Aldrich, St. Louis, MO, USA) dye exclusion method was used to assess cell viability before plating.
(§4) Adherent cells (HeLa, CaCo-2, MCF-7 and MDCK-1) were plated in 96-well flat bottom plates (Greiner, Frickenhausen, Austria) at a concentration of 2 × 10^4 cells/mL. Suspension cells (THP-1 and HuT78) were plated in 96-well microtiter plates (Sarstead, Newton, USA) at a concentration of 1 × 10^5 cells/mL. Twenty-four hours later, cells were treated with test agents in […] 10-fold dilutions ([…] to 10^−4 M) and incubated for further 72 h. Working dilutions were freshly prepared on the day of testing. The solvent was also tested for eventual inhibitory activity by adjusting its concentration to be the same as in working concentrations. After 72 h of incubation, the cell growth rate was evaluated by performing the MTT assay, which detects dehydrogenase activity in viable cells. For this purpose, upon completion of the incubation period, growth medium was discarded and 50 μL of MTT was added to each well at a concentration of 5 mg/mL. After four hours of incubation at 37 °C, water insoluble MTT-formazan crystals were dissolved in 150 μL of dimethyl-sulfoxide (DMSO) for adherent cells, and in 10 % SDS with 0.01 M/L HCl for cells grown in suspension. The absorbance (OD, optical density) was measured on a microplate reader (iMark, BIO RAD, Hercules, CA, USA) at 595 nm.
(§5) Percent of life cells was calculated as follows: % = OD (sample)–OD (background)/OD (control)–OD (background) × 100.
(§6) Optical density (OD) of background for adherent cells is the OD of MTT solution and DMSO; OD (background) for suspension cells is OD of the culture medium with MTT and 10% SDS with 0.01 M/L HCl; OD (control) is the OD of the cells growth without tested compounds.
(§7) Calculation of GI50 value curves and QC analysis is performed by using the Excel tools and GraphPadPrism software (La Jolla, CA), v. 5.03. Briefly, individual concentration effect curves are generated by plotting the logarithm of the concentration of tested compounds(X) vs. corresponding percent inhibition values (Y) using least squares fit. The best fit GI50 values are calculated using Log (inhibitor) versus normalized response—Variable slope equation, where Y Ľ 100/(1 ţ 10 ((LogIC50 _ X) * HillSlope)). QC criteria parameters (Z0, S:B, R2, HillSlope) were checked for every GI50 curve.

[2] = tested on: CaCo-2 (colon adenocarcinoma) cells; assay: MTT antiproliferative assay, CaCo-2; type: cell-based, human; details: Homo sapiens, Caco-2; 72 h, MTT, mean ± SD of three independent experiments
Summary of the method: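 CaCo-2 cells, plated at 2 × 10^4 cells/mL in DMEM with 10 % FBS at 37 °C/5% CO2, were treated 24 h later with five 10-fold dilutions (10^−7 to 10^−4 M) for 72 h. Viability was measured by MTT (4 h, formazan dissolved in DMSO, OD 595 nm) against background and untreated controls. GI50 came from log-concentration versus percent-inhibition fits.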

[3] = tested on: THP1 (human monocytic leukemia) cells; assay: MTT antiproliferative assay, THP1; type: cell-based; details: Homo sapiens, THP-1; 72 h, MTT, mean ± SD of three independent experiments
Experimental: as §1, §2, §3, §4, §5, §6, §7

[4] = tested on: MDCK1 (Madin–Darby canine kidney) cells; assay: MTT antiproliferative assay, non-tumor MDCK1 cells; type: cell-based; details: Canis lupus familiaris, MDCK1, 72 h, mean ± SD of three independent experiments, normal cells
Summary of the method: (§8)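 Readout: MTT formazan absorbance at 595 nm after a 72 h compound exposure (10^−7–10^−4 M, 10-fold steps). Viability is expressed as background-corrected % of untreated control, and GI50 is fitted by a variable-slope curve.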

[5] = tested on: HuT78 (T-cell lymphoma) cells; assay: MTT antiproliferative assay, HuT78; type: cell-based, human
Summary of the method: as §8

[6] = tested on: HuT78 cells; assay: Cell cycle analysis (PI, flow cytometry); type: cell-based, human; details: HuT78, 5 µM, 24 h, versus untreated cells
Experimental: The HuT78 cells were plated in 6-well plates at a concentration of 5 × 10^5 cells per well and treated 24 h and 48 h with selected compounds 36c, 42a, 42c, 45a, 45b, 45c and 46c at a concentration of 5 μM. After drug treatment, the cells were fixed with ice-cold 70% ethanol in phosphate-buffered saline (PBS) and incubated with 0.3 μg/mL propidium iodide for 30 min at room temperature. Before being analyzed by flow cytometry (BD FACSCalibur, Becton Dickinson, San Jose, CA, SAD), samples were treated with 0.4 μg/mL RNase A for 5 min at room temperature. The resultant DNA histograms were generated and analyzed using FlowJo 7.6 software (Treestar, Inc, Ashland, OR, USA). Experiments were done in duplicate and the quantitative data are reported as average value ± standard deviation. Comparisons between control (non-treated) and treated groups were done using one-way analysis of variance (ANOVA) with Tukey–Kramer’s post hoc test with MedCalc statistical program. P-value less than 0.05 was considered statistically significant.

[7] = tested on: human fibroblasts (BJ); assay: MTT antiproliferative assay, normal BJ fibroblasts; type: cell-based
Summary of the method: as §8

[8] = tested on: HL60 (promyelocytic leukemia) cells; assay: MTT antiproliferative assay, HL60; type: cell-based, human
Experimental: as §1, §2, §3, §4, §5, §6, §7

[9] = tested on: HeLa (cervical adenocarcinoma) cells; assay: MTT antiproliferative assay, HeLa; type: cell-based; details: Homo sapiens, 72 h, mean ± SD of three independent experiments
Summary of the method: as §8

[10] = tested on: MDA-MB-231 (human breast adenocarcinoma) cells; assay: MTT antiproliferative assay, MDA-MB-231; type: cell-based; details: Homo sapiens, MDA-MB-231; 72 h, MTT, mean ± SD of three independent experiments
Experimental: as §1, §2, §3, §4, §5, §6, §7

[11] = tested on: MCF-7^wt cells; set-up: method as in PMID 23623491; details: estrogen receptor-positive MCF-7^wt cells ref 17,18; cited from earlier work

SMILES | IC50 [1] | IC50 [2] | IC50 [3] | IC50 [4] | IC50 ([5]; Homo sapiens, HuT78, 72 h, 72 h, MTT, mean ± SD of three independent experiments) | SI (MDCK) HuT78 ([5]; SI = IC50 MDCK1 / IC50 HuT78) | G2/M phase cell fraction [6] | toxicity to normal BJ cells (in words) [7] | IC50 ([7]; Homo sapiens, Fibroblast, 72 h, MTT, mean ± SD of three independent experiments, normal cells) | IC50 ([8]; Homo sapiens, HL-60, 72 h, MTT, mean ± SD of three independent experiments) | SI (MDCK) HL60 ([8]; SI = IC50 MDCK1 / IC50 HL60) | IC50 [9] | IC50 [10] | IC50 [11]
COc1cc(-c2nc3ccc(C4=NCCCN4)cc3[nH]2)ccc1OCc1cn(Cc2ccccc2)nn1 [45c] | > 100 µM | > 100 µM | > 100 µM | 68.5 ± 22.7 µM | 4.1 ± 3.3 µM | 16.7 | decrease in G2/M phase | not toxic | > 100 µM | 25.1 ± 16 µM | 2.73 | > 100 µM | > 100 µM | –
Nc1ccc(-c2nc3ccccc3s2)cc1 [CJM-126] | – | – | – | – | – | – | – | – | – | – | – | – | – | < 0.001 µM
